Results: PubChem BioAssay (NCI)
Values joined by “and” are separate entries in the source; they are usually repeats but may differ in a detail not shown here. Identical values can stand only once.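 Five concentrations, 48 hours, 96-well plates. At the GI50, growth is halved. TGI marks complete inhibition of growth.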

How the values were obtained:
Assay in all cases: growth of human tumour cells (NCI), 48 h
[1] = system: HL-60(TB) leukemia
[2] = system: COLO 205 colon
[3] = system: CCRF-CEM leukemia
[4] = system: SN12C renal
[5] = system: NCI-H460 lung
[6] = system: OVCAR-3 ovarian
[7] = system: T-47D breast
[8] = system: RXF 393 renal
[9] = system: MDA-MB-231 breast
[10] = system: KM12 colon

SMILES	GI50 [1]	TGI [1]	GI50 [2]	TGI [2]	GI50 [3]	TGI [3] [µM]	GI50 [4]	TGI [4]	GI50 [5]	TGI [5]	GI50 [6]	TGI [6]	GI50 [7]	TGI [7]	GI50 [8]	TGI [8]	GI50 [9]	TGI [9]	GI50 [10]	TGI [10]
COc1ccccc1/C=N\N=C(N/N=C/c1ccccc1OC)N/N=C/c1ccccc1OC	3.09 µM	9.26 µM	2.11 µM	4.63 µM	3.22 µM	> 100	3.35 µM	19.7 µM	2.74 µM	10.8 µM	2.55 µM	13.1 µM	3.27 µM	9.69 µM	5.01 µM	> 100 µM	3.2 µM	9.11 µM	2.96 µM	16.2 µM
CO[C@@H]1/C=C(C)/C=C/[C@@H](C)/C=C(\C)C(=O)OC(/C(C)=C/C=C(\C)CNC(=O)[C@H](CO)NC=O)[C@@H](C)/C=C/C=C/[C@H](OC)CC/C=C(C)/C=C/C1 (some centres undefined)	< 0.005 µM	> 50 µM	0.00816 µM	0.627 µM	< 0.005 µM	16.5	0.182 µM	12.2 µM	< 0.005 µM	5.81 µM	< 0.005 µM	0.605 µM	0.0243 µM	16.8 µM	0.285 µM	0.808 µM	0.292 µM		< 0.005 µM	8 µM
O=C(c1ccco1)c1c(C(F)(F)F)n([O-])c2ccccc2[n+]1=O	0.175 µM	1.42 µM	3.32 µM	28.5 µM	0.671 µM	3.71	0.618 µM	3.1 µM	0.245 µM	1.15 µM	0.735 µM	3.88 µM	1.97 µM	29.7 µM	1.43 µM	9.45 µM	0.772 µM	3.6 µM	0.911 µM	8.18 µM
COc1ccc2c(c1)C(c1ccccc1Cl)=Nc1c(n[nH]c1C)N2	> 25 µM	> 25 µM	11.7 µM	> 25 µM	> 25 µM	> 25	> 20.3 µM	> 25 µM	18.5 µM	> 25 µM	> 25 µM	> 25 µM	> 17.6 µM	> 25 µM	3.7 µM	> 25 µM	> 25 µM	> 25 µM	0.995 µM	> 25 µM
COC(=O)[C@]12CC[C@@H](C)[C@H](C)[C@@H]1C1=CC[C@@H]3[C@@]4(C)C=C(O)C(=O)[C@@]5(C)COC(=C54)C[C@@]3(C)[C@]1(C)CC2	4.17 µM	19.9 µM	13.5 µM	29.6 µM	3.38 µM	14.9			12.4 µM	28.9 µM	11.5 µM	24.4 µM	3.66 µM	20.7 µM	7.09 µM	24.9 µM	11.9 µM	29.7 µM	11.9 µM	29.4 µM
Cc1cc(Nc2ncnc3ccc(NC4=NC(C)(C)CO4)cc23)ccc1Oc1ccn2ncnc2c1	21 µM and > 10 µM	46.1 µM and > 10 µM	14.3 µM and > 10 µM	32.3 µM and > 10 µM	15.6 µM and > 10 µM	> 95.8	11 µM and > 10 µM	65.5 µM and > 10 µM	17.9 µM and > 10 µM	39.6 µM and > 10 µM	14.4 µM and > 10 µM	52.6 µM and > 10 µM	1.33 µM and 1.75 µM	12.8 µM and > 10 µM	12.7 µM and > 10 µM	28.9 µM and > 10 µM	14.1 µM and > 10 µM	44.9 µM and > 10 µM	15.6 µM and > 10 µM	32.1 µM and > 10 µM
C/C(=N\N=C(/[Se])N1CC2CCC(CC2)C1)c1ccccn1		0.489 µM		0.063 µM		0.808		2.57 µM		2.61 µM		1.61 µM		3.05 µM		0.359 µM		2.65 µM		1.54 µM
COc1cc(/C=C2\CCC(CN(C)C)C2=O)ccc1OC(=O)c1ccccc1 (centres undefined)		8.71 µM		24.8 µM		9.77		25.1 µM		37.7 µM		21.3 µM		7.9 µM		15.4 µM		19.1 µM		13.7 µM
N#CC1=C(N)NC(=O)NC12Nc1ccccc1S2 (centres undefined)	34.5 µM	> 100 µM	15.8 µM	> 73.1 µM	> 42 µM	> 67.6	17.6 µM	50.8 µM	23.6 µM	> 70.9 µM	26.8 µM	> 59.9 µM	26.7 µM	> 100 µM	16.9 µM	> 52.7 µM	10.4 µM	31.2 µM	26.5 µM	> 68.4 µM
Cn1cc(-c2cnc3ccc4ccc(CS(=O)(=O)NCc5ccccn5)cc4c(=O)c3c2)cn1	9.15 µM	41.8 µM	18.6 µM	> 55.8 µM	9.08 µM	> 93.8	19 µM	> 93.3 µM	15.7 µM	49.7 µM	14.6 µM	45.8 µM	16.4 µM	> 93 µM	12.9 µM	35.1 µM	19.6 µM	> 68.4 µM	10.5 µM	52 µM
O=C(Cc1cccc(OC(F)(F)F)c1)Nc1ccc(CCCCc2nnc(NC(=O)Cc3ccccn3)s2)nn1	8.34 µM	> 100 µM	23.8 µM	> 100 µM	32.1 µM	> 100	18.5 µM	> 100 µM	13.9 µM	48.3 µM	17 µM	> 100 µM	3.46 µM	26.5 µM	4.34 µM	22.7 µM	29.8 µM	> 100 µM	14.1 µM	> 100 µM
C=CC(=O)N[C@H]1CCOC[C@H]1Nc1ncc2cc(-c3c(Cl)c(OC)cc(OC)c3Cl)ccc2n1	12 µM	64.5 µM	13.8 µM	29.5 µM	21.9 µM	> 100	16.2 µM	> 100 µM	13.8 µM	> 100 µM	20.3 µM	> 100 µM	7.51 µM	85.5 µM	5.35 µM	36.7 µM	17.7 µM	> 100 µM	27.1 µM	> 100 µM
COc1cccc2c1C(=O)c1c(O)c3c(c(O)c1C2=O)C[C@@](O)(C(=O)CO)C[C@@H]3OC1C[C@H](N)[C@H](O)[C@H](C)O1 (some centres undefined)	0.078 µM	0.593 µM	0.0904 µM	0.446 µM	0.0186 µM	0.428	0.0253 µM	7.44 µM	0.005 µM	> 50 µM	0.167 µM		0.0409 µM	1.06 µM	0.0751 µM	0.25 µM	0.144 µM	5.41 µM	0.135 µM	6.27 µM
NC1=NC(c2ccc(Cl)cc2)C2=C(N1)/C(=C/c1ccc(Cl)cc1)CCC2 (centres undefined)	12.3 µM	45.8 µM	6.17 µM	19.9 µM	5.95 µM	> 81.5	17.3 µM	50.4 µM	12.2 µM	29.8 µM	5.76 µM	15.4 µM	11.6 µM	> 100 µM	2.05 µM	4.45 µM	> 29.6 µM	> 56.1 µM	2.32 µM	5.27 µM
O=C(Nc1ccc(Cl)cc1)c1cc(-c2ccc(Cl)cc2)c2sc(=O)[nH]c2n1	1.27 µM	6.68 µM	1.63 µM	3.54 µM	2.5 µM	40.3	2.12 µM	20.1 µM	2.19 µM	12.6 µM	2.32 µM	7.45 µM	0.584 µM	5.46 µM	2.77 µM	7.42 µM	1.66 µM	3.56 µM	1.58 µM	10.3 µM
c1cn2cc(-c3ccc4cn[nH]c4c3)nc(Nc3ccc(N4CCOCC4)cc3)c2n1	> 100 µM	> 100 µM	41.3 µM	> 100 µM	> 100 µM	> 100	17 µM	41.2 µM	7.59 µM	25.4 µM	18.4 µM	40.2 µM	12 µM	30.9 µM	2.47 µM	18.3 µM	12.6 µM	26.7 µM	0.479 µM	59 µM
N#CCc1ncc(-c2ccc(C(F)(F)F)cc2)c(NC2CCCCCC2)n1	> 10 µM	> 10 µM	> 10 µM	> 10 µM	> 10 µM	> 10	> 10 µM	> 10 µM	> 10 µM	> 10 µM	> 10 µM	> 10 µM	> 10 µM	> 10 µM	> 10 µM	> 10 µM	> 10 µM	> 10 µM	> 10 µM	> 10 µM
O=C(N/N=C/c1ccc([N+](=O)[O-])cc1)c1ccc2nc(-c3ccc(Cl)cc3)[nH]c2c1	0.797 µM	5.73 µM			0.591 µM	17.7	3.14 µM	18.1 µM	2.1 µM	4.49 µM	3.25 µM	8.23 µM	2.29 µM	7.21 µM	2.03 µM	7.07 µM	3.75 µM	13.9 µM	3.43 µM	13 µM
